Assay results as given in ChEMBL document CHEMBL4680126, “Indazolyl-substituted piperidin-4-yl-aminopyrimidines as HIV-1 NNRTIs: Design, synthesis and biological activities” (Eur J Med Chem, 2020).

Legend:
[1] = system: Human immunodeficiency virus 2; experiment: Antiviral activity against HIV-2 ROD strain infected in human MT4 cells assessed as reduction in virus-induced cytopathogenicity by MTT assay; settings: Human immunodeficiency virus 2, ISOLATE ROD
[2] = system: Human immunodeficiency virus 1; experiment: Antiviral activity against HIV-1 E138K mutant strain infected in human MT4 cells assessed as reduction in virus-induced cytopathogenicity by MTT assay; type: functional, organism-based; settings: Human immunodeficiency virus 1, MT4
[3] = Cytotoxicity against human MT4 cells assessed as inhibition of cell viability by measuring reduction in absorbance at OD540 by MTT assay; type: cell-based
[4] = system: Human immunodeficiency virus 1; experiment: Antiviral activity against HIV-1 Y181C mutant strain infected in human MT4 cells assessed as reduction in virus-induced cytopathogenicity by MTT assay; type: functional, organism-based; settings: Human immunodeficiency virus 1, MT4
[5] = system: Human immunodeficiency virus 1; experiment: Antiviral activity against wild type HIV-1 strain 3B infected in human MT4 cells assessed as reduction in virus-induced cytopathogenicity by MTT assay; type: functional, organism-based; settings: Human immunodeficiency virus 1, 3B
[6] = system: Human immunodeficiency virus 1; experiment: Antiviral activity against HIV-1 RES056 mutant strain infected in human MT4 cells assessed as reduction in virus-induced cytopathogenicity by MTT assay; type: functional, organism-based; settings: Human immunodeficiency virus 1, MT4
[7] = Selectivity index, ratio of CC50 for cytotoxicity against human MT4 cells reduction in cell viability by MTT assay to EC50 for antiviral activity against wild type HIV-1 strain IIIB infected in human MT4 cells assessed as reduction in virus-induced cytopathogenicity by MTT assay; type: toxicity, cell-based; settings: read-out: Selectivity Index
[8] = system: Human immunodeficiency virus 1; experiment: Antiviral activity against HIV-1 K103N mutant strain infected in human MT4 cells assessed as reduction in virus-induced cytopathogenicity by MTT assay; type: functional, organism-based; settings: Human immunodeficiency virus 1, MT4

Structure (SMILES): Cc1cc(C#N)cc(C)c1Oc1ccnc(NC2CCN(Cc3n[nH]c4ccccc34)CC2)n1
- EC50 [1]: > 16 µM
- EC50 [2]: 0.057 µM
- CC50 [3]: 16 µM
- EC50 [4]: 0.11 µM
- EC50 [5]: 0.0064 µM
- EC50 [6]: 8.7 µM
- selectivity ratio [7]: 2500
- EC50 [8]: 0.077 µM

Structure (SMILES): N#Cc1cccc(Oc2ccnc(NC3CCN(Cc4n[nH]c5ccccc45)CC3)n2)c1
- EC50 [1]: > 32 µM
- EC50 [2]: > 32 µM
- CC50 [3]: 32 µM
- EC50 [4]: > 32 µM
- EC50 [5]: 1.5 µM
- EC50 [6]: > 32 µM
- selectivity ratio [7]: 21
- EC50 [8]: > 32 µM

Structure (SMILES): Clc1ccccc1Oc1ccnc(NC2CCN(Cc3n[nH]c4ccccc34)CC2)n1
- EC50 [1]: > 5.4 µM
- EC50 [2]: 0.8 µM
- CC50 [3]: 5.4 µM
- EC50 [4]: 1.6 µM
- EC50 [5]: 0.037 µM
- EC50 [6]: > 5.4 µM
- selectivity ratio [7]: 146
- EC50 [8]: > 5.4 µM

Structure (SMILES): Clc1cccc(Oc2ccnc(NC3CCN(Cc4n[nH]c5ccccc45)CC3)n2)c1
- EC50 [1]: > 26 µM
- EC50 [2]: 4.7 µM
- CC50 [3]: 26 µM
- EC50 [4]: 9 µM
- EC50 [5]: 0.28 µM
- EC50 [6]: > 26 µM
- selectivity ratio [7]: 93
- EC50 [8]: 9.8 µM

Structure (SMILES): Brc1ccc(Oc2ccnc(NC3CCN(Cc4n[nH]c5ccccc45)CC3)n2)cc1
- EC50 [1]: > 24 µM
- EC50 [2]: 2 µM
- CC50 [3]: 24 µM
- EC50 [4]: 7.5 µM
- EC50 [5]: 0.21 µM
- EC50 [6]: > 24 µM
- selectivity ratio [7]: 114
- EC50 [8]: 5.7 µM

Structure (SMILES): Cc1ccc(Oc2ccnc(NC3CCN(Cc4n[nH]c5ccccc45)CC3)n2)cc1
- EC50 [1]: > 32 µM
- EC50 [2]: 0.77 µM
- CC50 [3]: 32 µM
- EC50 [4]: 4.3 µM
- EC50 [5]: 0.14 µM
- EC50 [6]: > 32 µM
- selectivity ratio [7]: 229
- EC50 [8]: 3.8 µM

Structure (SMILES): Cc1cccc(Oc2ccnc(NC3CCN(Cc4n[nH]c5ccccc45)CC3)n2)c1
- EC50 [1]: > 32 µM
- EC50 [2]: 4 µM
- CC50 [3]: 32 µM
- EC50 [4]: > 11 µM
- EC50 [5]: 0.39 µM
- EC50 [6]: > 32 µM
- selectivity ratio [7]: 82
- EC50 [8]: 9.6 µM

Structure (SMILES): N#Cc1cc(Cl)cc(Oc2ccnc(NC3CCN(Cc4n[nH]c5ccccc45)CC3)n2)c1
- EC50 [1]: > 27 µM
- EC50 [2]: > 27 µM
- CC50 [3]: 27 µM
- EC50 [4]: > 27 µM
- EC50 [5]: 2.3 µM
- EC50 [6]: > 27 µM
- selectivity ratio [7]: 12
- EC50 [8]: > 27 µM

Structure (SMILES): FC(F)(F)c1ccccc1Oc1ccnc(NC2CCN(Cc3n[nH]c4ccccc34)CC2)n1
- EC50 [1]: > 15 µM
- EC50 [2]: 4.4 µM
- CC50 [3]: 15 µM
- EC50 [4]: 6.8 µM
- EC50 [5]: 0.3 µM
- EC50 [6]: > 15 µM
- selectivity ratio [7]: 50
- EC50 [8]: 8.3 µM

Structure (SMILES): Clc1ccc(Oc2ccnc(NC3CCN(Cc4n[nH]c5ccccc45)CC3)n2)cc1
- EC50 [1]: > 30 µM
- EC50 [2]: 2.3 µM
- CC50 [3]: 30 µM
- EC50 [4]: 5.6 µM
- EC50 [5]: 0.23 µM
- EC50 [6]: > 30 µM
- selectivity ratio [7]: 130
- EC50 [8]: 4 µM

Structure (SMILES): Cc1cccc(C)c1Oc1ccnc(NC2CCN(Cc3n[nH]c4ccccc34)CC2)n1
- EC50 [1]: > 18 µM
- EC50 [2]: 0.084 µM
- CC50 [3]: 18 µM
- EC50 [4]: 0.4 µM
- EC50 [5]: 0.0086 µM
- EC50 [6]: > 18 µM
- selectivity ratio [7]: 2090
- EC50 [8]: 0.22 µM

Structure (SMILES): Brc1cccc(Oc2ccnc(NC3CCN(Cc4n[nH]c5ccccc45)CC3)n2)c1
- EC50 [1]: > 22 µM
- EC50 [2]: 3.5 µM
- CC50 [3]: 22 µM
- EC50 [4]: 6.1 µM
- EC50 [5]: 0.25 µM
- EC50 [6]: > 22 µM
- selectivity ratio [7]: 88
- EC50 [8]: 4.9 µM

Structure (SMILES): Cc1cc(Oc2ccnc(NC3CCN(Cc4n[nH]c5ccccc45)CC3)n2)cc(C)c1Cl
- EC50 [1]: > 15 µM
- EC50 [2]: 4.7 µM
- CC50 [3]: 15 µM
- EC50 [4]: 8.7 µM
- EC50 [5]: 0.37 µM
- EC50 [6]: > 15 µM
- selectivity ratio [7]: 41
- EC50 [8]: 8.2 µM

Structure (SMILES): N#Cc1ccc(Oc2ccnc(NC3CCN(Cc4n[nH]c5ccccc45)CC3)n2)cc1
- EC50 [1]: > 31 µM
- EC50 [2]: 1.4 µM
- CC50 [3]: 31 µM
- EC50 [4]: 3.13 µM
- EC50 [5]: 0.078 µM
- EC50 [6]: > 31 µM
- selectivity ratio [7]: 397
- EC50 [8]: 2.6 µM

Structure (SMILES): FC(F)(F)c1cccc(Oc2ccnc(NC3CCN(Cc4n[nH]c5ccccc45)CC3)n2)c1
- EC50 [1]: > 22 µM
- EC50 [2]: 7 µM
- CC50 [3]: 22 µM
- EC50 [4]: 9.7 µM
- EC50 [5]: 0.55 µM
- EC50 [6]: > 22 µM
- selectivity ratio [7]: 40
- EC50 [8]: 8.9 µM

Structure (SMILES): Brc1ccccc1Oc1ccnc(NC2CCN(Cc3n[nH]c4ccccc34)CC2)n1
- EC50 [1]: > 5.3 µM
- EC50 [2]: 0.48 µM
- CC50 [3]: 5.3 µM
- EC50 [4]: 1 µM
- EC50 [5]: 0.031 µM
- EC50 [6]: > 5.3 µM
- selectivity ratio [7]: 171
- EC50 [8]: 1.9 µM

Structure (SMILES): FC(F)(F)c1ccc(Oc2ccnc(NC3CCN(Cc4n[nH]c5ccccc45)CC3)n2)cc1
- EC50 [1]: > 29 µM
- EC50 [2]: 4.8 µM
- CC50 [3]: 29 µM
- EC50 [4]: > 29 µM
- EC50 [5]: 0.47 µM
- EC50 [6]: > 29 µM
- selectivity ratio [7]: 62
- EC50 [8]: 10 µM

Structure (SMILES): O=C1Nc2ccc(Cl)cc2[C@@](C#CC2CC2)(C(F)(F)F)O1 [EFAVIRENZ]
- EC50 [2]: 0.0044 µM
- CC50 [3]: > 6.3 µM
- EC50 [5]: 0.0026 µM
- EC50 [6]: 0.24 µM
- selectivity ratio [7]: > 2420
- EC50 [8]: 0.076 µM

Structure (SMILES): Cc1cc(C#N)cc(C)c1Oc1nc(Nc2ccc(C#N)cc2)nc(N)c1Br [ETRAVIRINE]
- CC50 [3]: > 87 µM
- selectivity ratio [7]: > 28

Structure (SMILES): Nc1ccn([C@@H]2CS[C@H](CO)O2)c(=O)n1 [LAMIVUDINE]
- EC50 [1]: 0.021 µM
- EC50 [2]: 0.019 µM
- CC50 [3]: > 7.5 µM
- EC50 [4]: 0.012 µM
- EC50 [5]: 0.018 µM
- EC50 [6]: 0.028 µM
- selectivity ratio [7]: > 417
- EC50 [8]: 0.019 µM

Structure (SMILES): Cc1ccnc2c1NC(=O)c1cccnc1N2C1CC1 [NEVIRAPINE]
- EC50 [2]: 0.0067 µM
- CC50 [3]: > 4.6 µM
- EC50 [4]: 0.014 µM
- EC50 [5]: 0.0032 µM
- EC50 [6]: 0.034 µM
- selectivity ratio [7]: > 1440
- EC50 [8]: 0.0032 µM

Structure (SMILES): Cc1cn([C@H]2C[C@H](N=[N+]=[N-])[C@@H](CO)O2)c(=O)[nH]c1=O [ZIDOVUDINE]
- EC50 [2]: 0.16 µM
- CC50 [3]: > 15 µM
- selectivity ratio [7]: > 100
